Experimental data: US20080138284A1, “Novel Peptides That Promote Lipid Efflux” (Lipid Sciences, Inc., priority 2006, published 2008)
Ends that are not written are not given here.

Legend:
[1] = test system: HeLa cells transfected with only a hygromycin-resistant control plasmid (control cells); experiment: Cholesterol and phospholipid efflux from control HeLa cells (incl. time course); type: cell-based, human; conditions: for cholesterol efflux from control cells, time course: rate compared with ABCA1 cells
Procedure: HeLa cells stably transfected with human ABCA1 cDNA (ABCA1 cells) and HeLa cells transfected with only a hygromycin-resistant control plasmid (control cells) are produced and grown in α-modified Eagle's medium (aMEM) plus 10% fetal calf serum, as described by Remaley et al. (Biochem. Biophys. Res. Commun. 280:818-823, 2001). Cholesterol and phospholipid efflux is performed for 18 hours on noncholesterol-loaded cells radiolabeled with either cholesterol or choline (Remaley et al., Arterioscler. Thromb. Vasc. Biol. 17:1813-1821, 1997). Percentage efflux is calculated after subtracting the radioactive counts in the blank media (aMEM plus 1 mg/ml of BSA), and expressed as the percent of total radioactive counts removed from the cells during the efflux period.
ABCA1 cells are used to assess the ability of apoA-I and synthetic peptides to efflux lipid from cells. […] The peptides of the present invention efflux approximately 2- to 4-fold more cholesterol and phospholipid from ABCA1 cells than from control cells. Both the peptides of the present invention and apoA-I began to show saturation for lipid efflux at approximately the same protein concentration of 10 μg/ml.
Cholesterol efflux from ABCA1 cells to apoA-I is first detectable after 2 hours and increases throughout the 30 hour efflux period. […] Overall, the kinetics for cholesterol efflux to peptides of the present invention from ABCA1 cells is similar to that of apoA-I, except that cholesterol efflux is first detectable after 30 minutes.

CD11b = CD11b expression in stimulated monocytes by flow cytometry; type: cell-based; conditions: human monocytes, 1 μmol/L PMA, 20 μg/ml apoA-1 or peptide
Procedure: Monocyte Isolation Peripheral whole blood (PWB) is drawn from healthy consenting individuals into syringes containing sodium citrate (final concentration—19.2 mM). Resting human monocytes are isolated from PWB by density centrifugation with Lymphoprep (Axis Shield). Mononuclear cells (MNCs) are collected and monocytes are further separated to purity using the Dynal negative isolation kit (Invitrogen). Monocytes are resuspended in phosphate buffered saline (PBS) and cell number is determined counting cell suspension on an automated hematology analyzer (Sysmex, KX-21N, USA). Purification of HDL and apoA-1 Human plasma apoA-1 is isolated as previously described and the purity determined using total mass spectrometry. Flow Cytometry 100 μL of monocytes are stimulated with either 1 μmol/L phorbol-myristate-acetate (PMA) or 1 μg/ml lipopolysaccharide (LPS) (Sigma, Australia) in the presence or absence of apoA-1 (20 μg/ml), or 20 μg/ml of the test peptides of the present invention. SEQ ID NOs: 72, 80, 89, 354, 355 and 372 are also tested individually. The cells are incubated with the FITC conjugated antibody to either the active epitope of CD11b (eBiosciences, USA, Clone CBRM1/5) or total CD11b (Serotec, USA, Clone ICRF44) for 15 min at 37° C. Cells are then fixed with 4% paraformaldehyde. Samples are controlled for by using the appropriately matched isotype matched negative control (FITC-anti-mouse IgG) (Serotec, USA, Clone W3/25). CD11b expression is measured by flow cytometry using FACS Calibur (Becton Dickinson). Analysis is conducted using the Cell Quest Pro software. Statistical Analysis Values are presented as the mean ±SD or percentage of control ±SD. FACS results are analyzed for statistical significance using one-way ANOVA followed by Bonferroni post-hoc test. Significance is accepted at P<0.05. […] The combined effects of increasing cholesterol efflux and decreasing inflammation indicate that the peptides of the present invention effectively mimic the function of Apo AI and will decrease atherosclerosis.

[2] = test system: apoE knockout and LDL-receptor knockout mice; experiment: Aortic atherosclerosis after ip peptide injection in ApoE knockout and LDL receptor knockout mice; type: in vivo, mouse; conditions: 30 mg/kg ip three times per week, 4-5 or 8-10 weeks; 'proposed studies'
Procedure: ApoE knockout and LDL receptor knockout mice, two well established animal models for the study of atherosclerosis, are injected with either saline as control or the synthetic peptides of the present invention to ascertain if these peptides can be used to increase HDL and decrease atherosclerosis.
The mice receive 3 injections per week for either […] or 8-10 weeks. After the completion of the injection, the amount of hardening of the arteries or atherosclerosis is determined in the control injected animals and peptide injected animals to determine if the injections of the synthetic peptide decreased development of atherosclerosis.
The proposed studies test if intraperitoneal infusions of the apoA-I mimetic peptides of the present invention result in decreased aortic atherosclerosis in apoE and LDL receptor knockout mice, two well established mouse models of atherosclerosis.
Four to six week old C57B1/6 mice, apoE knockout (JAX 2052) and LDL-receptor knockout (JAX 2207) mice, all in the C57B1/6 background, are obtained from Jackson Laboratories. During the entire study, C57B1/6 and apoE knockout mice are maintained on a regular chow diet (0.02% cholesterol, 3% fat) and LDL-receptor mice are maintained on a Western diet (TD88137; Harlan Teklad; Madison, Wis. —containing 0.20% cholesterol and 21% fat).
In the first study (Infusion Study A), C57B1/6 mice as well as apoE knockout and LDL receptor knockout mice are injected by the intraperitoneal (ip) route or intravenous (iv) route with synthetic peptides of the present invention mimetic (30 mg/kg) on up to four different occasions two weeks apart. To evaluate changes in the plasma lipid and lipoprotein profile associated with injection of the synthetic peptide, blood for lipid analyses is obtained before and at 2, 4, 6, 24 and 48 hours after peptide injection. At the end of the study the animals are sacrificed.
For infusion studies B and C, mice are injected ip with either placebo or a synthetic peptide of the present invention (30 mg/kg) three times per week for either 4 to 5 weeks (Infusion Study B) or 8 to 10 weeks (Infusion Study C). Blood for lipid and lipoprotein analyses is obtained at the beginning of the study (day 0) and every two weeks after placebo/peptide injection and at the completion of the study. At the completion of the study (4 to 5 weeks for Infusion Study B and 8 to 10 weeks for Infusion Study C), the animals are sacrificed, organs harvested for analyses of cholesterol content and for aortic atherosclerosis.
For Infusion Study A, 5 four to six week old C57B1/6, apoE knockout (JAX 2052) and LDL receptor knockout (JAX 2207) control mice receive ip or iv injections of the synthetic peptide of the present invention for up to four times two weeks apart. The sequence of procedures for this study is as follows: • 1) Mice are first anaesthetized by using 1-3% isoflurane by inhalation prior to each ip injection to insure appropriate and complete delivery of placebo/peptide. • 2) Mice are injected with either placebo (0.2 ml saline) or apoA-I synthetic peptide (30 mg/kg in 0.2 ml saline) via either the intraperitoneal or intravenous route. • 3) In order to evaluate changes in the plasma lipids and lipoproteins in the time-frame between injections, each mouse in this study group is bled from the retro-orbital sinus following administration of a topical anesthesia. before and at 2, 4, 6, 24 and 48 hours after the peptide injection. No more than 300 ul blood is drawn during this 48 hour period. • 4) At the end of infusion study A all mice are sacrificed by using Avertin (2.5%, 0.011 ml/gm, ip) or ketamine (80 ug/gm, ip). […]

Substance | removal of cholesterol and phospholipids from control cells relative to Apo A-I [1] | cholesterol efflux from control cells, time course [1] | PMA induced CD11b expression (CD11b) | aortic atherosclerosis compared to controls [2]
Ac-Gly Glu Glu Met Arg Asp Arg Ala Arg Ala His Val Asp Ala Leu Arg Thr His Ala Lys Pro Val Leu Leu Glu Ser Phe Lys Val Ser Phe Leu Ser Ala Leu Glu Glu Tyr Thr Lys Lys-NH2 (Ac-GEEMRDRARAHVDALRTHAKPVLLESFKVSFLSALEEYTKK-NH2) [SEQ ID NO:354] | comparable to or more than that removed by Apo A-I | promote cholesterol efflux from control cells but at a lower rate | significantly reduce PMA induced CD11b expression | decrease aortic atherosclerosis compared to controls
Ac-Leu Glu Ser Ala Lys Val Ser Ala Leu Ser Ala Leu Glu Glu Ala Thr Lys Lys Ala Lys Pro Val Leu Leu Glu Ser Phe Lys Val Ser Phe Leu Ser Ala Leu Glu Glu Tyr Thr Lys Lys-NH2 (Ac-LESAKVSALSALEEATKKAKPVLLESFKVSFLSALEEYTKK-NH2) [SEQ ID NO:372] | comparable to or more than that removed by Apo A-I | promote cholesterol efflux from control cells but at a lower rate | significantly reduce PMA induced CD11b expression | decrease aortic atherosclerosis compared to controls
Ac-Ser Asp Glu Leu Arg Gln Arg Leu Ala Ala Arg Leu Glu Ala Leu Lys Glu Asn Ala Lys Pro Val Leu Leu Glu Ser Phe Lys Val Ser Phe Leu Ser Ala Leu Glu Glu Tyr Thr Lys Lys-NH2 (Ac-SDELRQRLAARLEALKENAKPVLLESFKVSFLSALEEYTKK-NH2) [SEQ ID NO:355] | comparable to or more than that removed by Apo A-I | promote cholesterol efflux from control cells but at a lower rate | significantly reduce PMA induced CD11b expression | decrease aortic atherosclerosis compared to controls
GEEMRDRARAHVDALRTHAKPVLLESFKVSFLSALEEYTKK [SEQ ID NO:72] | comparable to or more than that removed by Apo A-I | promote cholesterol efflux from control cells but at a lower rate | significantly reduce PMA induced CD11b expression | decrease aortic atherosclerosis compared to controls
LESAKVSALSALEEATKKAKPVLLESFKVSFLSALEEYTKK [SEQ ID NO:89] | comparable to or more than that removed by Apo A-I | promote cholesterol efflux from control cells but at a lower rate | significantly reduce PMA induced CD11b expression | decrease aortic atherosclerosis compared to controls
SDELRQRLAARLEALKENAKPVLLESFKVSFLSALEEYTKK [SEQ ID NO:80] | comparable to or more than that removed by Apo A-I | promote cholesterol efflux from control cells but at a lower rate | significantly reduce PMA induced CD11b expression | decrease aortic atherosclerosis compared to controls
